Tests used:
JAK2 (JH1 domain) = JAK2 (JH1 domain) (Homo sapiens (Human), UniProt O60674); test: JAK2 JH1 domain binding assay (KINOMEscan)
Protocol: (§6) The assay is performed by combining three components: DNA-tagged kinase; immobilized ligand; and a test compound. The ability of the test compound to compete with the immobilized ligand is measured via quantitative PCR of the DNA tag.
(§7) The liganded beads were blocked with excess biotin and washed with blocking buffer (SeaBlock (Pierce), 1% BSA, 0.05% Tween 20, 1 mM DTT) to remove unbound ligand and to reduce non-specific binding. […] Test compounds were prepared as 111× stocks in 100% DMSO. All test compounds were shipped to DiscoverX in DMSO with concentration of 10 mM. Kds were determined using an 11-point 3-fold compound dilution series with three DMSO control points. Each compound was tested in duplicate. […] The compounds were then diluted directly into the assays such that the final concentration of DMSO was 0.9%. All reactions performed in polypropylene 384-well plate. Each was a final volume of 0.02 ml. […] The kinase concentration in the eluates was measured by qPCR.
(§8) The amount of kinase measured by qPCR (Signal; y-axis) is plotted against the corresponding compound concentration in nM in log 10 scale (x-axis). Binding constants (Kds) were calculated with a standard dose-response curve using the Hill equation:
(§9) Similar to the method for TYK2 JH2 binding described above, JAK1 JH2 and JAK2 JH1 domain binding assay was performed using DiscoverX's KINOMEscan™, but with change of kinase domain.

[1] = test system: INFα induced pSTAT5 in human PBMC; test: INFα induced pSTAT5 in human PBMC; format: cell-based; details: human PBMC, INFα 5000 units/ml; read-out: p-STAT5 IC50
Protocol: Cells were seeded in a round bottom 96-well plate at the concentration of 200,000 cells/well. A 10-point dilution series of test compound (top dose 10 uM, 1:5 dilution) was added to the well using the liquid dispenser (Tecan D300e) and incubated for 1 hour at 37 C. Then human INFα recombinant protein (R&D Systems) was added to the well at the final concentration of 5000 units/ml and incubated for 15 minutes at 37 C. Cell lysates were prepared and analyzed by Phospho STAT3 (Tyr705) cellular kit (Cisbio) or Phospho STAT5 (Tyr693) Kit (Meso Scale Discovery) following manufacturer's protocol.
For calculation of the inhibition rate, the relative pSTAT signal of each well=pSTAT signal of each well−the average pSTAT signal of baseline. The inhibition %=(the average pSTAT signal of INFα treatment wells−the relative of pSTAT signal in each compound containing well)/the average pSTAT signal of INFα treatment wells*100%

JAK1 (JH2 domain) = JAK1 (JH2 domain) (Homo sapiens (Human), UniProt P23458); test: JAK1 JH2 domain binding assay (KINOMEscan); details: KINOMEscan; read-out: JAK1 (JH2 domain) binding Kd
JAK1 (JH2 domain), sequence (P23458 583-855): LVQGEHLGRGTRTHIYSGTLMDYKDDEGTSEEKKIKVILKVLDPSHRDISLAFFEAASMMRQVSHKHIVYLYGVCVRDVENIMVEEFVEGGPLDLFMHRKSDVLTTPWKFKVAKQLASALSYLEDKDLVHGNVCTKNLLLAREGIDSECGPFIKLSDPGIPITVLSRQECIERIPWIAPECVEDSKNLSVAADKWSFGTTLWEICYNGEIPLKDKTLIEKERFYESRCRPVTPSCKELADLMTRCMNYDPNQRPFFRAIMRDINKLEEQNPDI
Protocol: as §6, §7, §8, §9

[2] = test system: IL-2-induced pSTAT5 in human PBMC; test: IL-2-induced pSTAT5 in human PBMC; format: cell-based; details: IL-2 20 ng/ml
Protocol: (§1) Fresh Human PBMCs were resuspended in RPMI 1640 medium with 10% FBS. Cells were seeded in a round bottom 96-well plate at the concentration of 200,000 cells/well. A 10-point dilution series of test compound (top dose 10 uM, 1:5 dilution) was added to the well using the liquid dispenser (Tecan D300e) and incubated for 1 hour at 37 C. Then human IL-12 recombinant protein (R&D Systems) was added to the well at the final concentration of 10 ng/ml and incubated for 15 minutes at 37 C. Cell lysates were prepared and analyzed by Phospho STAT4 (Tyr693) Kit (Meso Scale Discovery) following manufacturer's protocol.
(§2) For calculation of the inhibition rate, the relative pSTAT4 signal of each well=pSTAT4 signal of each well−the average pSTAT4 signal of baseline. The inhibition %=(the average pSTAT4 signal of IL-12 treatment wells−the relative of pSTAT4 signal in each compound containing well)/the average pSTAT4 signal of IL-12 treatment wells*100%
(§3) The curve was plotted as the inhibition % (y-axis) vs. compounds concentration (x-axis) and was fitted with log(inhibitor) vs. normalized response—Variable slope by GraphPad Prism7.0. Control is BMS-986165:
(§4) Similar to the method for IL-12 induced pSTAT4 in human PBMC described above, these assays were performed to check if test compounds have cross-activity to JAK1. JAK2 and JAK3 pathways in human PBMC. The procedure is as described with change of stimuli to 10 ng/ml of GM-CSF or 20 ng/ml of IL-2.

[3] = test system: GM-CSF-induced pSTAT5 in human PBMC; test: GM-CSF-induced pSTAT5 in human PBMC; format: cell-based; details: GM-CSF 10 ng/ml
Protocol: as §1, §2, §3, §4

[4] = Pharmacokinetic study in Beagle dogs; format: in vivo; details: dog, plasma; for Vd: read-out: Vdss
Protocol: (§5) The pharmacokinetics of test compounds were evaluated in male C57BL/6 mice, Sprague Dawley rats, Beagle dogs, and cynomolgus monkeys when administered via oral gavage and IV injection. The animals were fasted overnight before administration. Plasma samples were collected predose and at 0.5, 1, 3, 6, 9, 12, and 24 hours postdose. The samples were analyzed by LC/MS/MS and the concentration of test compound at each timepoint was determined by linear regression. Pharmacokinetic parameters were calculated from the plasma concentrations using Pheonix WinNonlin.

[5] = Pharmacokinetic study in cynomolgus monkeys; format: in vivo; details: cynomolgus monkey, plasma; for Vd: read-out: Vdss
Protocol: as §5

[6] = Pharmacokinetic study in Sprague Dawley rats; format: in vivo; details: rat, plasma; for Vd: read-out: Vdss
Protocol: as §5

TYK2 (JH2 domain) = TYK2 (JH2 domain) (Homo sapiens (Human), UniProt P29597); test: TYK2 JH2 domain binding assay (DiscoverX KINOMEscan); details: 11-point 3-fold dilution, duplicate
TYK2 (JH2 domain), sequence (P29597 589-875): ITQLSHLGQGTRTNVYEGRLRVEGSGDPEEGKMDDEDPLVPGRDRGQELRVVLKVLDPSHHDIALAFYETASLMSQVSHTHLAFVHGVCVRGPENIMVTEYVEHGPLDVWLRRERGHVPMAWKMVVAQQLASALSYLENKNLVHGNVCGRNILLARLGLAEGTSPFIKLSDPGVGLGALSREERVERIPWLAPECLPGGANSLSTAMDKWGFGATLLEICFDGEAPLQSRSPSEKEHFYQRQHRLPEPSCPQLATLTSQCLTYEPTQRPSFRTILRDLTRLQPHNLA
Protocol: as §6, §7, §8
The Hill Slope was set to −1.
Curves were fitted using anon-linear least square fit with the Levenberg-Marquardt algorithm.

[7] = Pharmacokinetic study in C57BL/6 mice; format: in vivo; design: AUC: unit not given here; details: for Tmax / bioavailability / half-life / Cmax / clearance / Vd: male, mouse, plasma; for Vd: read-out: Vdss
Protocol: as §5

[8] = Oral (2 mg/kg), read-out: C0 or Cmax (Cmax)
[9] = iv, I.V. (1 mg/kg), read-out: C0 or Cmax (C0)
[10] = Oral (2 mg/kg), NA: no detectable
[11] = Oral (2 mg/kg), NA: no detectable, read-out: C0 or Cmax (Cmax)
[12] = Oral (5 mg/kg), read-out: C0 or Cmax (Cmax)
[13] = Oral (10 mg/kg), read-out: C0 or Cmax (Cmax)
[14] = iv, I.V. (2 mg/kg), read-out: C0 or Cmax (C0)
[15] = intravenous, printed on the Oral (2 mg/kg) line (probably belongs to I.V. 1 mg/kg)

JAK2 (JH1 domain), sequence (O60674 849-1124): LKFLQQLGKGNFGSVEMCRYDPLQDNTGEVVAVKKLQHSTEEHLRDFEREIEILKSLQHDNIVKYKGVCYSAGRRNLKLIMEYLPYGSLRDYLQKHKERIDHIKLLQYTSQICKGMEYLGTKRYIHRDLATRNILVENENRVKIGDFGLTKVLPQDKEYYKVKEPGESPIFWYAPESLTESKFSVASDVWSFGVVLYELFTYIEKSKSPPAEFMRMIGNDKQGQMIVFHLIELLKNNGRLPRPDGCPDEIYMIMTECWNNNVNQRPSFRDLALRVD

## [2H]C([2H])([2H])CC(=O)c1cnc(Nc2cccc(C#N)n2)cc1Nc1cccc(-c2ncn(C([2H])([2H])[2H])n2)c1OC [Example 198]
JAK2 (JH1 domain)
  Kd: > 10000 nM
[1]
  IC50: < 100 nM
JAK1 (JH2 domain)
  Kd: < 100 nM
[2]
  IC50: 100 to 1000 nM
[3]
  IC50: 1000 to 10000 nM
[4]; Oral (2 mg/kg)
  AUC: 253 ± 48 ng·h/mL
  Tmax: 1.67 ± 0.58 h
  bioavailability: 54 ± 10%
  half-life: 1.42 ± 0.24 h
[4]; [8]
  Cmax: 68.8 ± 18 ng/mL
[4]; iv, I.V. (1 mg/kg)
  AUC: 234 ± 94 ng·h/mL
  clearance: 68.6 ± 28 mL/min/kg
  half-life: 4.29 ± 1.25 h
  Vd: 23.1 ± 4.59 L/kg
[4]; [9]
  Cmax: 182 ± 47.6 ng/mL
[5]; [10]
  AUC: 1230 ± 435 ng·h/mL
  Tmax: 4 h
  bioavailability: 59.4 ± 21.1%
  half-life: 1.28 ± 0.18 h
[5]; [11]
  Cmax: 246 ± 124 ng/mL
[5]; iv, I.V. (1 mg/kg)
  AUC: 1030 ± 159 ng·h/mL
  clearance: 16.1 ± 2.4 mL/min/kg
  half-life: 1.45 ± 0.22 h
  Vd: 1.94 ± 0.03 L/kg
[5]; [9]
  Cmax: 667 ± 82 ng/mL
[6]; Oral (5 mg/kg)
  AUC: 1190 ± 53 ng·h/mL
  Tmax: 1 ± 0.87 h
  bioavailability: 16.9 ± 0.76%
  half-life: 2.85 ± 2.8 h
[6]; [12]
  Cmax: 261 ± 35 ng/mL
[6]; iv, I.V. (1 mg/kg)
  AUC: 1400 ± 29 ng·h/mL
  clearance: 11.8 ± 0.22 mL/min/kg
  half-life: 1.22 ± 0.12 h
  Vd: 1.1 ± 0.065 L/kg
[6]; [9]
  Cmax: 1200 ± 70 ng/mL
TYK2 (JH2 domain)
  Kd: ≤ 1 nM

## [2H]C([2H])([2H])CC(=O)c1cnc(NC(=O)C2CC2)cc1Nc1nccc(-c2ncn(C([2H])([2H])[2H])n2)c1OC [Example 200]
[7]; I.V. (2 mg/kg)
  AUC: 4475
[7]; Oral (10 mg/kg)
  AUC: 19295
  Tmax: 0.25 h
  bioavailability: 85.1%
  half-life: 2.01 h
[7]; [13]
  Cmax: 4190 ng/mL
[7]; iv, I.V. (2 mg/kg)
  clearance: 7.35 mL/min/kg
  half-life: 4.62 h
  Vd: 1.5 L/kg
[7]; [14]
  Cmax: 2390 ng/mL
JAK2 (JH1 domain)
  Kd: 1000 to 10000 nM
[1]
  IC50: < 100 nM
JAK1 (JH2 domain)
  Kd: < 100 nM
[2]
  IC50: 1000 to 10000 nM
[3]
  IC50: > 10000 nM
[4]; Oral (2 mg/kg)
  AUC: 2620 ± 258 ng·h/mL
  Tmax: 1.33 h
  bioavailability: 82.9 ± 8.2%
  half-life: 8.51 ± 1.6 h
[4]; [8]
  Cmax: 247 ± 17 ng/mL
[4]; iv, I.V. (0.5 mg/kg)
  AUC: 790 ± 196 ng·h/mL
  half-life: 11.5 ± 1.6 h
  Vd: 8.37 ± 1.39 L/kg
[4]; iv, I.V. (0.5 mg/kg), read-out: C0 or Cmax (C0)
  Cmax: 29.7 ± 14 ng/mL
[5]; [10]
  AUC: 4060 ± 251 ng·h/mL
  Tmax: 2 h
  bioavailability: 27.7 ± 1.7%
  half-life: 8.6 ± 0.73 h
[5]; [11]
  Cmax: 384 ± 22 ng/mL
[5]; iv, I.V. (1 mg/kg)
  AUC: 7320 ± 202 ng·h/mL
  clearance: 1.87 ± 0.21 mL/min/kg
  half-life: 9.35 ± 1.57 h
  Vd: 1.45 ± 0.18 L/kg
[5]; [9]
  Cmax: 677 ± 81 ng/mL
[6]; Oral (5 mg/kg)
  AUC: 3660 ± 684 ng·h/mL
  Tmax: 1 h
  bioavailability: 42.7 ± 8%
  half-life: 4.22 ± 3.6 h
[6]; [12]
  Cmax: 948 ± 43 ng/mL
[6]; iv, I.V. (1 mg/kg)
  AUC: 1710 ± 19 ng·h/mL
  clearance: 9.42 ± 0.022 mL/min/kg
  half-life: 1.58 ± 0.21 h
  Vd: 1.24 ± 0.065 L/kg
[6]; [9]
  Cmax: 1030 ± 47 ng/mL
TYK2 (JH2 domain)
  Kd: ≤ 1 nM

## [2H]C([2H])([2H])CC(=O)c1cnc(Nc2ccc(C(C)(C)O)c(F)n2)cc1Nc1nccc(-c2ncn(C([2H])([2H])[2H])n2)c1OC [Example 201]
JAK2 (JH1 domain)
  Kd: 100 to 1000 nM
[1]
  IC50: < 100 nM
JAK1 (JH2 domain)
  Kd: < 100 nM
[2]
  IC50: 100 to 1000 nM
[3]
  IC50: 100 to 1000 nM
[4]; Oral (2 mg/kg)
  AUC: 442 ± 81 ng·h/mL
  Tmax: 2 h
  bioavailability: 38.5 ± 7.1%
  half-life: 5.05 ± 0.47 h
[4]; [8]
  Cmax: 103 ± 28 ng/mL
[4]; iv, I.V. (1 mg/kg)
  AUC: 575 ± 158 ng·h/mL
  clearance: 29.3 ± 8.01 mL/min/kg
  half-life: 4.54 ± 1.26 h
  Vd: 7.41 ± 2.64 L/kg
[4]; [9]
  Cmax: 458 ± 336 ng/mL
[5]; [10]
  AUC: 67.9 ± 21 ng·h/mL
  Tmax: 2.33 ± 1.5 h
  bioavailability: 4.67 ± 1.5%
  half-life: 3.08 ± 0.66 h
[5]; [11]
  Cmax: 13.9 ± 2 ng/mL
[5]; [15]
  clearance: 23.2 ± 4.3 mL/min/kg
  Vd: 1.47 ± 0.1 L/kg
[5]; iv, I.V. (1 mg/kg)
  AUC: 726 ± 134 ng·h/mL
  half-life: 1.81 ± 0.76 h
[5]; [9]
  Cmax: 849 ± 50 ng/mL
[6]; Oral (5 mg/kg)
  AUC: 499 ± 502 ng·h/mL
  Tmax: 0.42 ± 0.14 h
  bioavailability: 18.7 ± 18.9%
  half-life: 1.14 ± 0.2 h
[6]; [12]
  Cmax: 185 ± 138 ng/mL
[6]; iv, I.V. (1 mg/kg)
  AUC: 533 ± 225 ng·h/mL
  clearance: 34.3 ± 12 mL/min/kg
  half-life: 0.759 ± 0.6 h
  Vd: 1.31 ± 0.42 L/kg
[6]; [9]
  Cmax: 1190 ± 116 ng/mL
TYK2 (JH2 domain)
  Kd: ≤ 1 nM

## [2H]C([2H])([2H])CC(=O)c1cnc(Nc2ccc(C(C)(C)O)c(F)n2)cc1Nc1cccc(-c2ncn(C([2H])([2H])[2H])n2)c1OC [Example 202]
[7]; I.V. (2 mg/kg)
  AUC: 1911
[7]; Oral (10 mg/kg)
  AUC: 6395
  Tmax: 0.5 h
  bioavailability: 66.6%
  half-life: 3.27 h
[7]; [13]
  Cmax: 1900 ng/mL
[7]; iv, I.V. (2 mg/kg)
  clearance: 17.3 mL/min/kg
  half-life: 0.97 h
  Vd: 0.785 L/kg
[7]; [14]
  Cmax: 3340 ng/mL
JAK2 (JH1 domain)
  Kd: 100 to 1000 nM
[1]
  IC50: < 100 nM
JAK1 (JH2 domain)
  Kd: < 100 nM
[2]
  IC50: 100 to 1000 nM
[3]
  IC50: 100 to 1000 nM
[4]; Oral (2 mg/kg)
  AUC: 555 ± 154 ng·h/mL
  Tmax: 1 h
  bioavailability: 55 ± 15%
  half-life: 1.59 ± 0.15 h
[4]; [8]
  Cmax: 156 ± 53 ng/mL
[4]; iv, I.V. (1 mg/kg)
  AUC: 504 ± 49 ng·h/mL
  clearance: 32.7 ± 3.1 mL/min/kg
  half-life: 1.74 ± 0.28 h
  Vd: 4.21 ± 0.19 L/kg
[4]; [9]
  Cmax: 469 ± 255 ng/mL
[6]; Oral (5 mg/kg)
  AUC: 210 ± 60 ng·h/mL
  Tmax: 4 ± 2 h
  bioavailability: 8.35 ± 2.4%
  half-life: 1.29 ± 0.24 h
[6]; [12]
  Cmax: 50.1 ± 11 ng/mL
[6]; iv, I.V. (1 mg/kg)
  AUC: 504 ± 58 ng·h/mL
  clearance: 33.1 ± 4 mL/min/kg
  half-life: 0.323 ± 0.035 h
  Vd: 0.653 ± 0.03 L/kg
[6]; [9]
  Cmax: 1980 ± 101 ng/mL
TYK2 (JH2 domain)
  Kd: ≤ 1 nM
